# Test results as given in patent US20190046446A1, “APO-E MODIFIED LIPID NANOPARTICLES FOR DRUG DELIVERY TO TARGETED TISSUES AND THERAPEUTIC METHODS” (Eriochem USA, LLC, priority 2016, published 2019).
# “And” between values parts separate entries of the source, which are not always exact repeats. Equal entries are not always repeated. Where two headings read alike, the source gives them in different places.
# Assays:
# [1] = In vitro drug release by dialysis against human plasma; assay type: in vitro ADME; conditions: dialysis against 10% human plasma, 37° C., up to 72 hours
# Method: Drug release kinetics were evaluated in vitro by comparing solutions containing:
# The respective solution samples were placed in 12 KDa dialysis bags and dialyzed against a 10% V/V solution of human plasma for 72 hours at 37° C. in an orbital shaker with constant agitation at 60 rpm. Assays were then performed in triplicate, with samples taken from each solution at 0, 1, 2, 3, 6, 9, 24, 48, and 72 hours after dialysis initiation. […] The recovered organic phase was dried in a rotary evaporator, and the obtained dry material was resuspended in acetonitrile for further HPLC analysis.
# [2] = test system: PC3 (prostate cancer epithelial cells); experiment: In vitro cytotoxicity assay (MTS), PC3; assay type: cell-based, human
# Method: 50 μL of the cell suspensions were seeded in 96-well plates in duplicate with Dulbecco's basal medium plus 10% fetal bovine serum supplemented with 10% fetal bovine serum (FBS) for PC-3, and with DMEM/Ham's F12 medium containing 10% FBS, 1% 1-glutamine for A549 cell line. Both were maintained in culture for 24 hours. The cells were then treated with serial diluted concentrations of DCX starting from 100 nM and incubated for 48 hours. At the end of incubation, 20 μL/well of MTS/PMs solution (2 mL of MTS with 100 μL of PMS solution) were added. Then, plates were incubated at 37° C., 5% CO2 for 4 hours.
# (§1) Absorbance values obtained from the in vitro cytotoxicity assay of DCX, Nano+DCX, and Nano+DCX+ApoE3 samples were plotted based on the DCX concentration employed, using OriginPro 8 software (ORIGINLAB Corporation, USA). The IC50 (nM) of each of the samples was determined at 50% of the maximum absorbance value obtained, corresponding to the value obtained for the growth control.
# [3] = test system: A549 (lung cancer epithelial cells); experiment: In vitro cytotoxicity assay (MTS), A549; assay type: cell-based, human
# Method: 50 μL of the cell suspensions were seeded in 96-well plates in duplicate with Dulbecco's basal medium plus 10% fetal bovine serum supplemented with 10% fetal bovine serum (FBS) for PC-3, and with DMEM/Ham's F12 medium containing 10% FBS, 1% 1-glutamine for A549 cell line. Both were maintained in culture for 24 hours. The cells were then treated with serial diluted concentrations of DCX starting from 100 nM and incubated for 48 hours. At the end of incubation, 20 μL/well of MTS/PMs solution (2 mL of MTS with 100 μL of PMS solution) were added. Then, plates were incubated at 37° C., 5% CO2 for 4 hours. […] The result allowed for conditions for evaluating the growth inhibition of the Nano+DCX and Nano+DCX+ApoE3 to be defined.
# as §1, with “control. The anti-proliferation effect shown on different cells with DCX, Nano+DCX, and Nano+DCX+ApoE3 decreased cell proliferation.” for “control.”
# [4] = in vivo; cited from earlier work
# human plasma proteins = conditions: cited from earlier work
# [5] = test system: VERO (monkey kidney epithelial cells); experiment: In vitro cytotoxicity assay (MTS), VERO; assay type: cell-based
# [6] = Pharmacokinetics of Docetaxel in plasma of rabbits; assay type: in vivo, New Zealand rabbits; conditions: iv, 2.5 mg/kg DCX; for half-life: New Zealand, rabbit, 2.5 mg/kg
# Method: Changes in plasma drug concentration reflect changes in drug concentrations at the receptor site, as well as in other tissues.
# The formulations were administered intravenously at doses equivalent to 2.5 mg/kg of DCX in each. […] Blood samples were taken at 0.5, 2, 8, and 24 hours from each animal in Groups A and C, and at 1, 4, 12, and 32 hours for each animal in Groups B and D. Then, the samples were pre-treated for analysis—the proteins were precipitated with acetonitrile and then extracted with a solid phase (SPE), evaporated, and resuspended for analysis. […] Any adjustment of the experimental data was performed by weighted nonlinear regression of at least squares using a bi-exponential descriptive model.
# For this study, kd and kel were interpreted as the first order apparent distribution and elimination constants, respectively, and C1 and C2 were the coefficients of the adjustment model.
# From the estimated values of C1, kd, C2, and kel, the following pharmacokinetic parameters were calculated, as shown in Table 10 below.
# Clearance (CI) refers to the volume of blood that has completely cleared of the drug/unit time when it passes through a clearing organ.
compound,measurement,setting,value
"CC(=O)O[C@@]12CO[C@@H]1C[C@H](O)[C@@]1(C)C(=O)[C@H](O)C3=C(C)[C@@H](OC(=O)[C@H](O)[C@@H](NC(=O)OC(C)(C)C)c4ccccc4)C[C@@](O)([C@@H](OC(=O)c4ccccc4)[C@H]21)C3(C)C [TAXOTERE, Docetaxel]","Docetaxel release, comparison between solutions",[1],released more decetaxel than the lipid nanoparticles
same,IC50,"[2]; Homo sapiens, Epithelial cell, 48 h, Normal Serum, 48 hours, read-out: IC50 in PC3, individual tests",3.5 nM
same,IC50,"[2]; Homo sapiens, Epithelial cell, LP-FREE SERUM, Table 18, read-out: IC50 PC3",30 nM
same,IC50,"[2]; Homo sapiens, Epithelial cell, NORMAL SERUM, Table 18, read-out: IC50 PC3",4 nM
same,IC50,"[2]; Homo sapiens, Epithelial cell, Normal Serum, average of tests, read-out: IC50 in PC3",3.5 ± 0.1 nM
same,IC50,"[2]; Homo sapiens, Epithelial cell, Serum Free of Lipoprotein, average of tests, read-out: IC50 in PC3",30.2 ± 6.3 nM
same,IC50,"[2]; Homo sapiens, Epithelial cell, prostate cancer cell cultures, without lipoproteins, read-out: IC50",30 nM
same,Si PC3,"[2]; LP-FREE SERUM, SI=IC50 (Vero)/IC50 (PC3)",4
same,IC50,"[2]; Normal Serum, 48 hours, listed as DCX, read-out: IC50 in PC3, individual tests",3.9 nM and 3.3 nM and 3.4 nM
same,IC50,"[2]; Serum Free of Lipoprotein, 48 hours, listed as DCX, read-out: IC50 in PC3, individual tests",37.5 nM and 34.5 nM and 39 nM and 10 nM
same,times more toxic in the presence of lipoproteins,[2]; prostate cancer cell cultures,7.5 times
same,IC50,"[3]; Homo sapiens, A549, 48 h, Normal Serum, 48 hours, read-out: IC50 in A549, individual tests",8.75 nM
same,IC50,"[3]; Homo sapiens, A549, 48 h, Serum Free of Lipoprotein, 48 hours, read-out: IC50 in A549, individual tests",25.5 nM
same,IC50,"[3]; Homo sapiens, A549, LP-FREE SERUM, Table 18, read-out: IC50 A549",34 nM
same,IC50,"[3]; Homo sapiens, A549, NORMAL SERUM, Table 18, read-out: IC50 A549",9 nM
same,IC50,"[3]; Homo sapiens, A549, Normal Serum, average of tests, read-out: IC50 in A549",8.7 ± 0.7 nM
same,IC50,"[3]; Homo sapiens, A549, Serum Free of Lipoprotein, average of tests, read-out: IC50 in A549",33.8 ± 3.2 nM
same,IC50,"[3]; Homo sapiens, A549, lung cancer cell cultures, without lipoproteins, read-out: IC50",34 nM
same,Si A549,"[3]; LP-FREE SERUM, SI=IC50 (Vero)/IC50 (A549)",4
same,SI A549,"[3]; NORMAL SERUM, SI=IC50 (Vero)/IC50 (A549), listed as DCX",16
same,IC50,"[3]; Normal Serum, 48 hours, listed as DCX, read-out: IC50 in A549, individual tests",6.65 nM and 9.6 nM and 9.9 nM
same,IC50,"[3]; Serum Free of Lipoprotein, 48 hours, listed as DCX, read-out: IC50 in A549, individual tests",33 nM and 37.5 nM and 45.5 nM and 36.5 nM and 25 nM
same,times more toxic in the presence of lipoproteins,[3]; lung cancer cell cultures,3.8 times
same,incidence of reactions of unpredictable acute toxicity,[4],5-60%
same,free Docetaxel (fu),human plasma proteins; at 1.24 μM (1 μg/ml) plasma serum,0.082 µM
same,bound to plasma proteins,human plasma proteins; ultrafiltration at 37° C. and pH 7.4,> 98%
same,IC50,"[5]; Normal Serum, 48 hours, listed as DCX, read-out: IC50 in VERO, individual tests",145 nM and 140 nM and 150 nM
same,IC50,"[5]; Primates, Vero, 48 h, Normal Serum, 48 hours, read-out: IC50 in VERO, individual tests",136 nM
same,IC50,"[5]; Primates, Vero, 48 h, Serum Free of Lipoprotein, 48 hours, read-out: IC50 in VERO, individual tests",138 nM
same,IC50,"[5]; Primates, Vero, LP-FREE SERUM, Table 18, read-out: IC50 Normal Cell (Vero)",129 nM
same,IC50,"[5]; Primates, Vero, NORMAL SERUM, Table 18, read-out: IC50 Normal Cell (Vero)",143 nM
same,IC50,"[5]; Primates, Vero, Normal Serum, average of tests, read-out: IC50 in VERO",143 ± 2.9 nM
same,IC50,"[5]; Primates, Vero, Serum Free of Lipoprotein, average of tests, read-out: IC50 in VERO",129 ± 8.06 nM
same,IC50,"[5]; Serum Free of Lipoprotein, 48 hours, listed as DCX, read-out: IC50 in VERO, individual tests",106 nM (2×) and 140 nM and 153 nM and 152 nM and 111 nM
same,half-life,[6]; read-out: t1/2e1: Elimination half-life (converted),19.7 h
same,half-life,[6]; read-out: t1/2d: Distribution half-life (converted),0.54 h
same,ABC0-∞: Area under the curve from time zero to infinity,[6],1152.0 ng·h/mL
same,ABCex: Percentage of area under the curve extrapolated to infinity,[6],26.0%
same,ABCtz-∞: Area under the curve from the last sampling time to infinity,[6],299.0 ng·h/mL
same,C1: Coefficient of the first exponential term,[6],295.1 ng/mL
same,C2: Coefficient of the second exponential term,[6],32.5 ng/mL
same,Cz: Coefficient of last exponential term,[6],10.52 ng/mL
same,kd: first order apparent distribution constant,[6],0.000356 s⁻¹
same,ke1: first order apparent elimination constant,[6],0.035 h⁻¹
